From ChEMBL document CHEMBL3885881, “DrugMatrix”

Organism: Rattus norvegicus
Assay: DrugMatrix - Regimen: Daily Repeat
Assay type: toxicity, organism-based, Sprague-Dawley
Design: regimen Daily Repeat, gender Male, age 6-8 weeks
Conditions: in vivo, po, route oral GAVAGE, vehicle .5 % CMC; for ABSOLUTE BASOPHIL / ABSOLUTE EOSINOPHIL / ABSOLUTE LYMPHOCYTE / ABSOLUTE MONOCYTE / ABSOLUTE SEGMENTED NEUTROPHIL / BASOPHIL / EOSINOPHIL / ERYTHROCYTE COUNT / HEMATOCRIT / HEMOGLOBIN / LEUKOCYTE COUNT / LYMPHOCYTE / MEAN CORPUSCULAR HEMOGLOBIN / MEAN CORPUSCULAR HEMOGLOBIN CONCENTRATION / MEAN CORPUSCULAR VOLUME / MONOCYTE / NEUTROPHIL / NUCLEATED RED BLOOD CELLS / PLATELET COUNT: tissue Blood; for ALANINE AMINOTRANSFERASE / ALBUMIN / ALKALINE PHOSPHATASE / ASPARTATE AMINOTRANSFERASE / BLOOD UREA NITROGEN / CARBON DIOXIDE / CHLORIDE / CHOLESTEROL / CREATINE PHOSPHOKINASE / CREATININE / GLUCOSE / LACTATE DEHYDROGENASE / LIPASE / PHOSPHORUS / POTASSIUM / SODIUM / TOTAL BILIRUBIN / TOTAL PROTEIN / URIC ACID: tissue Plasma
[1] = 0 mg/kg, 72 h, dose level Control, time 3 day
[2] = 0 mg/kg, 120 h, dose level Control, time 5 day
[3] = 150 mg/kg, 72 h, dose level Low, time 3 day

Compound: C[C@@H](O)[C@H]1C(=O)N2C(C(=O)O)=C(S[C@@H]3CN[C@H](C(=O)N(C)C)C3)[C@H](C)[C@H]12 [MEROPENEM]
- ABSOLUTE BASOPHIL [1]: 0 CELLS/uL
- ABSOLUTE EOSINOPHIL [1]: 222.83 CELLS/uL
- ABSOLUTE LYMPHOCYTE [1]: 14453 CELLS/uL
- ABSOLUTE MONOCYTE [1]: 0 CELLS/uL
- ABSOLUTE SEGMENTED NEUTROPHIL [1]: 1490.83 CELLS/uL
- BASOPHIL [1]: 0%
- EOSINOPHIL [1]: 1.33%
- ERYTHROCYTE COUNT [1]: 5.76 x10E6/uL
- HEMATOCRIT [1]: 36.52%
- HEMOGLOBIN [1]: 13.45 G/DL
- LEUKOCYTE COUNT [1]: 16.17 x10E3/uL
- LYMPHOCYTE [1]: 89.33%
- MEAN CORPUSCULAR HEMOGLOBIN [1]: 23.37 pg
- MEAN CORPUSCULAR HEMOGLOBIN CONCENTRATION [1]: 36.85 G/DL
- MEAN CORPUSCULAR VOLUME [1]: 63.47 fL
- MONOCYTE [1]: 0%
- NEUTROPHIL [1]: 9.33%
- NUCLEATED RED BLOOD CELLS [1]: 0 /100WBC
- PLATELET COUNT [1]: 1239.5 x10E3/uL
- ALANINE AMINOTRANSFERASE [1]: 43.83 u/L
- ALBUMIN [1]: 4.27 G/DL
- ALKALINE PHOSPHATASE [1]: 398.83 u/L
- ASPARTATE AMINOTRANSFERASE [1]: 81.17 u/L
- BLOOD UREA NITROGEN [1]: 17.67 mg/dL
- CARBON DIOXIDE [1]: 27.5 mmol/L
- CHLORIDE [1]: 99.17 MEQ/L
- CHOLESTEROL [1]: 74 mg/dL
- CREATINE PHOSPHOKINASE [1]: 331.5 u/L
- CREATININE [1]: 0.2 mg/dL
- GLUCOSE [1]: 171.33 mg/dL
- LACTATE DEHYDROGENASE [1]: 241.67 u/L
- LIPASE [1]: 9.5 u/L
- PHOSPHORUS [1]: 12.25 mg/dL
- POTASSIUM [1]: 6.33 MEQ/L
- SODIUM [1]: 141.28 MEQ/L
- TOTAL BILIRUBIN [1]: 0.15 mg/dL
- TOTAL PROTEIN [1]: 5.98 G/DL
- URIC ACID [1]: 1.63 mg/dL
- ABSOLUTE BASOPHIL [2]: 0 CELLS/uL
- ABSOLUTE EOSINOPHIL [2]: 148.67 CELLS/uL
- ABSOLUTE LYMPHOCYTE [2]: 16020.5 CELLS/uL
- ABSOLUTE MONOCYTE [2]: 29.17 CELLS/uL
- ABSOLUTE SEGMENTED NEUTROPHIL [2]: 1468.33 CELLS/uL
- BASOPHIL [2]: 0%
- EOSINOPHIL [2]: 1%
- ERYTHROCYTE COUNT [2]: 5.78 x10E6/uL
- HEMATOCRIT [2]: 35.77%
- HEMOGLOBIN [2]: 13.4 G/DL
- LEUKOCYTE COUNT [2]: 17.67 x10E3/uL
- LYMPHOCYTE [2]: 90.5%
- MEAN CORPUSCULAR HEMOGLOBIN [2]: 23.22 pg
- MEAN CORPUSCULAR HEMOGLOBIN CONCENTRATION [2]: 37.47 G/DL
- MEAN CORPUSCULAR VOLUME [2]: 61.92 fL
- MONOCYTE [2]: 0.17%
- NEUTROPHIL [2]: 8.33%
- NUCLEATED RED BLOOD CELLS [2]: 0.17 /100WBC
- PLATELET COUNT [2]: 1255.5 x10E3/uL
- ALANINE AMINOTRANSFERASE [2]: 46.5 u/L
- ALBUMIN [2]: 4.38 G/DL
- ALKALINE PHOSPHATASE [2]: 336 u/L
- ASPARTATE AMINOTRANSFERASE [2]: 76.5 u/L
- BLOOD UREA NITROGEN [2]: 20 mg/dL
- CARBON DIOXIDE [2]: 27.5 mmol/L
- CHLORIDE [2]: 101 MEQ/L
- CHOLESTEROL [2]: 71.33 mg/dL
- CREATINE PHOSPHOKINASE [2]: 231.83 u/L
- CREATININE [2]: 0.37 mg/dL
- GLUCOSE [2]: 168.83 mg/dL
- LACTATE DEHYDROGENASE [2]: 174 u/L
- LIPASE [2]: 8.67 u/L
- PHOSPHORUS [2]: 11.48 mg/dL
- POTASSIUM [2]: 6.82 MEQ/L
- SODIUM [2]: 143.8 MEQ/L
- TOTAL BILIRUBIN [2]: 0.2 mg/dL
- TOTAL PROTEIN [2]: 5.98 G/DL
- URIC ACID [2]: 1.83 mg/dL
- ABSOLUTE BASOPHIL [3]: 0 CELLS/uL
- ABSOLUTE EOSINOPHIL [3]: 455.67 CELLS/uL
- ABSOLUTE LYMPHOCYTE [3]: 14286.67 CELLS/uL
- ABSOLUTE MONOCYTE [3]: 45.33 CELLS/uL
- ABSOLUTE SEGMENTED NEUTROPHIL [3]: 1912.33 CELLS/uL
- BASOPHIL [3]: 0%
- EOSINOPHIL [3]: 2.67%
- ERYTHROCYTE COUNT [3]: 5.53 x10E6/uL
- HEMATOCRIT [3]: 35.53%
- HEMOGLOBIN [3]: 13.27 G/DL
- LEUKOCYTE COUNT [3]: 16.7 x10E3/uL
- LYMPHOCYTE [3]: 85.67%
- MEAN CORPUSCULAR HEMOGLOBIN [3]: 24.03 pg
- MEAN CORPUSCULAR HEMOGLOBIN CONCENTRATION [3]: 37.37 G/DL
- MEAN CORPUSCULAR VOLUME [3]: 64.3 fL
- MONOCYTE [3]: 0.33%
- NEUTROPHIL [3]: 11.33%
- NUCLEATED RED BLOOD CELLS [3]: 0 /100WBC
- PLATELET COUNT [3]: 1310.33 x10E3/uL
- ALANINE AMINOTRANSFERASE [3]: 52.67 u/L
- ALBUMIN [3]: 4.33 G/DL
- ALKALINE PHOSPHATASE [3]: 370.33 u/L
- ASPARTATE AMINOTRANSFERASE [3]: 85.67 u/L
- BLOOD UREA NITROGEN [3]: 16.33 mg/dL
- CARBON DIOXIDE [3]: 27 mmol/L
- CHLORIDE [3]: 101.33 MEQ/L
- CHOLESTEROL [3]: 78.33 mg/dL
- CREATINE PHOSPHOKINASE [3]: 300.67 u/L
- CREATININE [3]: 0.22 mg/dL
- GLUCOSE [3]: 154.33 mg/dL
- LACTATE DEHYDROGENASE [3]: 406.33 u/L
- LIPASE [3]: 9 u/L
- PHOSPHORUS [3]: 11.9 mg/dL
- POTASSIUM [3]: 6.59 MEQ/L
- SODIUM [3]: 143 MEQ/L
- TOTAL BILIRUBIN [3]: 0.2 mg/dL
- TOTAL PROTEIN [3]: 6.03 G/DL
- URIC ACID [3]: 2 mg/dL
